Experimental data reported in BindingDB's records for doi:10.1016/j.ejmech.2020.112994 (North-West University, 2021).
pIC50: −log10 of the molar value.

Assay: Inhibition of EGFR in human A-431 cells assessed as antiproliferative activity incubated for 48 hrs by MTS method

pIC50: 5.79
SMILES: COc1cc2c(Nc3ccc(Br)cc3F)ncnc2cc1OCC1CCN(C(=O)Cn2cncc2[N+](=O)[O-])CC1
